Legend:
HepG2 [1] = experiment: relative viability EC50 (midpoint between 100% and the lowest measured viability); higher = less toxic; conditions: 72 h
Caco-2 [2] = experiment: as above; conditions: 72 h
U2OS [3] = experiment: as above; conditions: 72 h
[4] = system: A549-ACE2 infected with SARS-CoV-2; experiment: morphology score (similarity to uninfected cells); higher = more like uninfected cells; conditions: 24 h
[5] = system: A549-ACE2 infected with SARS-CoV-2; experiment: cell count relative to DMSO; higher = less toxic; conditions: 24 h
[6] = system: A549-ACE2 infected with SARS-CoV-2; experiment: SARS-CoV-2 infection rate relative to DMSO; higher = more infection; conditions: 24 h
HepG2 [7] = experiment: drug sensitivity score (DSS) for viability; higher = more toxic; extreme values may be limits of the assay; conditions: 72 h
Caco-2 [8] = experiment: as above; conditions: 72 h
U2OS [9] = experiment: as above; conditions: 72 h
A549-ACE2 [10] = experiment: drug-induced phospholipidosis relative to tamoxifen; higher = more phospholipidosis
HepG2 [11] = experiment: cell viability relative to DMSO; higher = less toxic; conditions: 72 h
Caco-2 [12] = experiment: as above; conditions: 72 h
U2OS [13] = experiment: as above; conditions: 72 h
Calu-3 [14] = experiment: relative viability EC50 (midpoint between 100% and the lowest measured viability); higher = less toxic; conditions: 72 h
Vero E6 [15] = experiment: as above; conditions: 72 h
Calu-3 [16] = experiment: drug sensitivity score (DSS) for viability; higher = more toxic; extreme values may be limits of the assay; conditions: 72 h
Vero E6 [17] = experiment: as above; conditions: 72 h
Calu-3 [18] = experiment: cell viability relative to DMSO; higher = less toxic; conditions: 72 h
Vero E6 [19] = experiment: as above; conditions: 72 h
A549-ACE2 [20] = experiment: phospholipidosis EC50; higher = less potent phospholipidosis inducer

O=C(O)CCCCCCCC(=O)O [azelaic-acid]
Conditions | drug sensitivity score | relative viability EC50 [µM]
Caco-2 [2] | – | > 10
Caco-2 [8] | 0 | –
HepG2 [1] | – | > 10
HepG2 [7] | 0 | –
U2OS [3] | – | > 10
U2OS [9] | 0 | –

Conditions | SARS-CoV-2 infection rate, [6] [%] | cell count, [5] [%] | cell viability, Caco-2 [12] [%] | cell viability, HepG2 [11] [%] | cell viability, U2OS [13] [%] | morphology score, [4]
1 nM | – | – | 105 | 102 | 101 | –
10 nM | – | – | 97 | 92.3 | 103 | –
100 nM | – | – | 103 | 115 | 99.4 | –
0.3 µM | 94 | 103 | – | – | – | 0.2
1000 nM | – | – | 105 | 96.4 | 106 | –
3 µM | 100 | 95 | – | – | – | -0.03
10 µM | 98 | 102 | – | – | – | 0.06
10000 nM | – | – | 95.6 | 99 | 97.7 | –
30 µM | 103 | 102 | – | – | – | 0.01

drug-induced phospholipidosis [%], A549-ACE2 [10]
Conditions | 0.3 µM | 0.833333 µM | 3.33333 µM | 6.66667 µM | 10 µM | 30 µM
24 h | -0.21 | -0.53 | -0.9 | -0.71 | -1.82 | 0.53
48 h | 0.97 | -0.84 | -1.1 | 0.62 | -0.42 | 2.28
72 h | 3.56 | 0.0211 | 0.507 | 0.701 | 1.19 | 4.29

CCCN1CCN(c2ccc(C(=O)NC3(C(=O)NCC#N)CCCCC3)cc2)CC1 [balicatib]
Conditions | drug sensitivity score | relative viability EC50 [µM]
Caco-2 [2] | – | > 10
Caco-2 [8] | 0 | –
Calu-3 [14] | – | > 10
Calu-3 [16] | 0 | –
HepG2 [1] | – | > 10
HepG2 [7] | 0 | –
U2OS [3] | – | > 10
U2OS [9] | 0 | –
Vero E6 [15] | – | > 10
Vero E6 [17] | 0 | –

Conditions | SARS-CoV-2 infection rate, [6] [%] | cell count, [5] [%] | cell viability, Caco-2 [12] [%] | cell viability, Calu-3 [18] [%] | cell viability, HepG2 [11] [%] | cell viability, U2OS [13] [%] | cell viability, Vero E6 [19] [%] | morphology score, [4]
1 nM | – | – | 107 | 108 | 90 | 100 | 99.7 | –
10 nM | – | – | 101 | 100 | 103 | 99.7 | 108 | –
100 nM | – | – | 102 | 98.8 | 114 | 95 | 108 | –
0.3 µM | 86 | 107 | – | – | – | – | – | 0.39
1000 nM | – | – | 95.4 | 108 | 104 | 103 | 98.1 | –
3 µM | 45 | 116 | – | – | – | – | – | 0.76
10 µM | 33 | 119 | – | – | – | – | – | 0.78
10000 nM | – | – | 106 | 110 | 101 | 95.4 | 105 | –
30 µM | 20 | 117 | – | – | – | – | – | 0.83

drug-induced phospholipidosis [%], A549-ACE2 [10]
Conditions | 0.3 µM | 0.833333 µM | 3.33333 µM | 6.66667 µM | 10 µM | 30 µM
24 h | 1.43 | -0.89 | 1.98 | 6.47 | 8.06 | 17.1
48 h | 1.09 | -1.16 | 0.49 | 4.83 | 7.84 | 17.9
72 h | 4.12 | -0.524 | 1.07 | 5.37 | 8.73 | 20.4

CCSc1ccc2c(c1)N(CCCN1CCN(C)CC1)c1ccccc1S2 [thiethylperazine]
Conditions | drug sensitivity score | relative viability EC50 [µM]
Caco-2 [8] | 1.6 | –
Calu-3 [16] | 1.5 | –
HepG2 [7] | 3.9 | –
U2OS [3] | – | > 10
U2OS [9] | 0 | –
Vero E6 [15] | – | > 10
Vero E6 [17] | 0.3 | –

Conditions | SARS-CoV-2 infection rate [%] | cell count [%] | cell viability [%] | morphology score | phospholipidosis EC50 [µM]
A549-ACE2 [20], 24 h | – | – | – | – | 3.52
A549-ACE2 [20], 48 h | – | – | – | – | 5.17
A549-ACE2 [20], 72 h | – | – | – | – | 6.75
Caco-2 [12], 1 nM | – | – | 101 | – | –
Caco-2 [12], 10 nM | – | – | 95.4 | – | –
Caco-2 [12], 100 nM | – | – | 91.7 | – | –
Caco-2 [12], 1000 nM | – | – | 98.4 | – | –
Caco-2 [12], 10000 nM | – | – | 69.6 | – | –
Calu-3 [18], 1 nM | – | – | 101 | – | –
Calu-3 [18], 10 nM | – | – | 89.2 | – | –
Calu-3 [18], 100 nM | – | – | 95.9 | – | –
Calu-3 [18], 1000 nM | – | – | 110 | – | –
Calu-3 [18], 10000 nM | – | – | 59.9 | – | –
HepG2 [11], 1 nM | – | – | 98 | – | –
HepG2 [11], 10 nM | – | – | 100 | – | –
HepG2 [11], 100 nM | – | – | 101 | – | –
HepG2 [11], 1000 nM | – | – | 89.5 | – | –
HepG2 [11], 10000 nM | – | – | 55.6 | – | –
U2OS [13], 1 nM | – | – | 103 | – | –
U2OS [13], 10 nM | – | – | 102 | – | –
U2OS [13], 100 nM | – | – | 106 | – | –
U2OS [13], 1000 nM | – | – | 106 | – | –
U2OS [13], 10000 nM | – | – | 91.6 | – | –
Vero E6 [19], 1 nM | – | – | 97.7 | – | –
Vero E6 [19], 10 nM | – | – | 95.5 | – | –
Vero E6 [19], 100 nM | – | – | 95 | – | –
Vero E6 [19], 1000 nM | – | – | 102 | – | –
Vero E6 [19], 10000 nM | – | – | 83.2 | – | –
[4], 0.3 µM | – | – | – | 0.15 | –
[4], 3 µM | – | – | – | 0.81 | –
[4], 10 µM | – | – | – | 0.8 | –
[4], 30 µM | – | – | – | -0.01 | –
[5], 0.3 µM | – | 98 | – | – | –
[5], 3 µM | – | 116 | – | – | –
[5], 10 µM | – | 122 | – | – | –
[5], 30 µM | – | 17 | – | – | –
[6], 0.3 µM | 99 | – | – | – | –
[6], 3 µM | 40 | – | – | – | –
[6], 10 µM | 12 | – | – | – | –
[6], 30 µM | 61 | – | – | – | –

drug-induced phospholipidosis [%], A549-ACE2 [10]
Conditions | 0.3 µM | 0.833333 µM | 3.33333 µM | 6.66667 µM | 10 µM | 30 µM
24 h | 2.75 | 4.77 | 26.3 | 67.4 | 80 | 53.2
48 h | 3.55 | 4.25 | 19.4 | 77.1 | 97 | –
72 h | 4.26 | 5.76 | 19.6 | 70 | 104 | –

Reference: the supplement of paper PMC13380429
